The results in this text go back to ChEMBL document CHEMBL4219257, “Novel 8-hydroxyquinoline derivatives targeting β-amyloid aggregation, metal chelation and oxidative stress against Alzheimer's disease” (Bioorg Med Chem, 2018).

Activity calls are given as the source filed them. The rule behind the calls is not given here.

Data set [1] deals with PC-12. Nature of the data set: Cytoprotection against H2O2-induced oxidative stress in rat PC12 cells assessed as increase in cell viability up to 10 uM after 24 hrs by MTT assay. It counts as functional, cell-based.
The target of data set [2] is T1, Amyloid-beta precursor protein (Homo sapiens, UniProt P05067). The data set is described as follows: Inhibition of HFIP-pretreated amyloid beta (1 to 42) (unknown origin) self-induced aggregation after 48 hrs by thioflavin T-based fluorometric assay.
Data set [3] deals with T1, Amyloid-beta precursor protein. Nature of the data set: Inhibition of HFIP-pretreated amyloid beta (1 to 42) (unknown origin) self-induced aggregation at 10 uM after 48 hrs by thioflavin T-based fluorometric assay relative to control.
The nature of data set [4]: Antioxidant activity assessed as trolox equivalents of AAPH radical scavenging activity at 10 uM preincubated for 15 mins followed by AAPH addition measured every minute for 120 mins by ORAC-FL assay. It counts as functional.
Data set [5] in a line: in vitro. Particulars: PAMPA.
Description: Permeability of the compound at 100 ug/ml after 10 hrs by PAMPA
The nature of data set [6]: Inhibition of Zn2+ - induced amyloid beta (1 to 42) (unknown origin) aggregation at 50 uM after 24 hrs by thioflavin T-based fluorometric assay relative to control.
A short description of data set [7]: Inhibition of Cu2+ - induced amyloid beta (1 to 42) (unknown origin) aggregation at 50 uM after 24 hrs by thioflavin T-based fluorometric assay relative to control.

T1 sequence (P05067 whole entry): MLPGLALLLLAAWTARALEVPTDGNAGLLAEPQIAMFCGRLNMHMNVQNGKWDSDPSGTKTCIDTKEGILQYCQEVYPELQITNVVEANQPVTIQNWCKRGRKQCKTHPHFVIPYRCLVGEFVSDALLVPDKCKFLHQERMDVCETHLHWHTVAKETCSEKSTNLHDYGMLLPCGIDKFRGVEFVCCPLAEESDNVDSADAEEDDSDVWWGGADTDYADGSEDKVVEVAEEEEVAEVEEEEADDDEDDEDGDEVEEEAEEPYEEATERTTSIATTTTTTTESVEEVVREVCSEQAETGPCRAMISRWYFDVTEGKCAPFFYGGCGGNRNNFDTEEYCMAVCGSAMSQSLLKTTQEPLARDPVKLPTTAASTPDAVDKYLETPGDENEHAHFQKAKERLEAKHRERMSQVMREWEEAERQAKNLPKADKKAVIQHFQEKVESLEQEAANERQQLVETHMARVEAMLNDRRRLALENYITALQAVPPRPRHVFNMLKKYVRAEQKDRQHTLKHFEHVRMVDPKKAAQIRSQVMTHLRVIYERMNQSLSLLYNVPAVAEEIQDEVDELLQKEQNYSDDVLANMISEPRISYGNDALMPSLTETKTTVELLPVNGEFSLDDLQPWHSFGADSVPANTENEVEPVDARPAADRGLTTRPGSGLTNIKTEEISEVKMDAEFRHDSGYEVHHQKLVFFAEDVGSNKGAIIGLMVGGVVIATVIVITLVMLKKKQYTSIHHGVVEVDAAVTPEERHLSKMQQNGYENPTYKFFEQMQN

For `Cc1c(C)c2c(c(C)c1O)CCC(C)(C(=O)O)O2` (stereo unspecified), in data set [1], the outcome was Active.

For the compound `COc1ccc(CCC(=O)N2CCN(Cc3ccc(O)c4ncccc34)CC2)cc1`, the IC50 in data set [2] was 18.3 µM. Also, the inhibition in data set [3] turned out to be 34.3%. Besides, the Activity in data set [4] came out at 2.89 equiv.

In data set [5], `COc1ccc(CCC(=O)N2CCN(Cc3ccc(O)c4ncccc34)CC2)cc1OC` came in with a Papp at 10 h, 100 ug/ml of 9.67 ×10⁻⁶ cm/s. In addition, in data set [3], the inhibition is 18.3%. Also, the Activity in data set [4] worked out at 3.74 equiv.

Consider `O=C(/C=C/c1ccc(Cl)cc1)N1CCN(Cc2ccc(O)c3ncccc23)CC1`, for which, in data set [2], the IC50 amounted to 22.6 µM. The inhibition in data set [3] stood at 25.7%. Also, the Activity in data set [4] came to 0.69 equiv.

For the compound `O=C(/C=C/c1ccc(F)cc1F)N1CCN(Cc2ccc(O)c3ncccc23)CC1`, in data set [2], the IC50 was found to be 5.05 µM. Moreover, the inhibition amounted to 52% in data set [6], 73.4% in data set [3] and 62.1% in data set [7]. The Papp at 10 h, 100 ug/ml in data set [5] amounted to 18.6 ×10⁻⁶ cm/s. In addition, in data set [4], the Activity came out at 1.57 equiv.

For `O=C(/C=C/c1ccc(F)cc1)N1CCN(Cc2ccc(O)c3ncccc23)CC1`, in data set [2], the IC50 came out at 11.4 µM. The inhibition in data set [3] is 49.9%. Further, the Activity in data set [4] amounted to 1.45 equiv.

Take `O=C(O)/C=C/c1ccccc1`: the Activity in data set [4] was 1.04 equiv.

As for `O=C(/C=C/c1ccccc1)N1CCN(Cc2ccc(O)c3ncccc23)CC1`, the IC50 in data set [2] amounted to 8.86 µM. Besides, the inhibition in data set [6] was 66.5%; in data set [3], 55%; in data set [7], 69.8%. In addition, the Activity in data set [4] was 1.65 equiv.

Take `O=C(CCc1ccccc1)N1CCN(Cc2ccc(O)c3ncccc23)CC1`: the IC50 in data set [2] amounted to 19.7 µM. Further, in data set [3], the inhibition was 28.1%. Moreover, the Activity in data set [4] came to 2.6 equiv.

For `COc1ccc(/C=C/C(=O)N2CCN(Cc3ccc(O)c4ncccc34)CC2)cc1`, the inhibition in data set [3] worked out at 12.3%. Besides, the Activity in data set [4] worked out at 1.25 equiv.

Turning to `C[C@]12CC[C@@H]3c4ccc(O)cc4CC[C@H]3[C@@H]1CC[C@@H]2O` [ESTRADIOL], in data set [5], the Papp at 10 h, 100 ug/ml turned out to be 9.17 ×10⁻⁶ cm/s.

`O=C(/C=C/c1ccc(Br)cc1)N1CCN(Cc2ccc(O)c3ncccc23)CC1`: the inhibition in data set [3] was determined as 8.65%. Also, the Activity in data set [4] is 0.93 equiv.

On to `Cc1ccccc1/C=C/C(=O)N1CCN(Cc2ccc(O)c3ncccc23)CC1`, for which the IC50 in data set [2] was 17.3 µM. Besides, in data set [3], the inhibition was found to be 26.1%. For the same compound, the Activity in data set [4] was found to be 1.52 equiv.

On to `N#Cc1ccc(/C=C/C(=O)N2CCN(Cc3ccc(O)c4ncccc34)CC2)cc1`, for which, in data set [2], the IC50 is 16.8 µM. Moreover, the inhibition in data set [3] turned out to be 27.8%. In addition, the Activity in data set [4] was 1.77 equiv.

Turning to `O=C(O)CCc1ccccc1`, the Activity in data set [4] was determined as 0.86 equiv.

`CCn1cc(C(=O)O)c(=O)c2cc(F)c(N3CCNC(C)C3)c(F)c21` (stereo unspecified) [LOMEFLOXACIN] displayed a Papp at 10 h, 100 ug/ml in data set [5] of 1.59 ×10⁻⁶ cm/s.

In the case of `Oc1ccc(/C=C/c2cc(O)cc(O)c2)cc1`, in data set [4], the Activity is 3.28 equiv.

For the compound `O=C(CCc1ccc(Cl)cc1)N1CCN(Cc2ccc(O)c3ncccc23)CC1`, the inhibition in data set [3] was 15.6%. Besides, the Activity in data set [4] was found to be 2.57 equiv.

Regarding `O=C(CCc1ccc(F)cc1)N1CCN(Cc2ccc(O)c3ncccc23)CC1`, the IC50 in data set [2] was 20.6 µM. For the same compound, in data set [3], the inhibition was determined as 32.5%. Further, the Activity in data set [4] was 2.32 equiv.

Turning to `O=C(/C=C/c1ccc([N+](=O)[O-])cc1)N1CCN(Cc2ccc(O)c3ncccc23)CC1`, in data set [3], the inhibition was found to be 13.2%. For the same compound, in data set [4], the Activity is 0.71 equiv.

`Oc1c(I)cc(Cl)c2cccnc12`: the inhibition in data set [6] was 55.3%; in data set [3], 25.7%; in data set [7] it was 61.4%. In addition, in data set [4], the Activity is 0.53 equiv.

Turning to `O=C(/C=C/c1ccccc1Cl)N1CCN(Cc2ccc(O)c3ncccc23)CC1`, the IC50 in data set [2] came out at 7.35 µM. The same compound returned an apparent permeability coefficient (Papp) at 10 h, 100 ug/ml in data set [5] of 6.83 ×10⁻⁶ cm/s. Further, the inhibition in data set [3] was 61.9%. In data set [4], the Activity worked out at 0.71 equiv.

Turning to `COc1ccc(/C=C/C(=O)N2CCN(Cc3ccc(O)c4ncccc34)CC2)cc1OC`, in data set [2], the IC50 worked out at 18.9 µM. In data set [5], this compound yielded a Papp at 10 h, 100 ug/ml of 8.82 ×10⁻⁶ cm/s. The inhibition in data set [3] is 29.4%. Also, in data set [4], the Activity was 1.08 equiv.

What is called IC50 is the concentration at which inhibition is half-maximal. For orientation: inhibition means the change of the read-out against control, counted positive when it falls. In general, Papp refers to the rate of passage across a membrane or cell layer, normalised by area and donor concentration.
